# Paper PMC8151276, “An Integrated Approach toward NanoBRET Tracers for Analysis of GPCR Ligand Engagement” (Molecules, 2021)
# Experiments:
# MTNR1A = target: T1, MTNR1A (Homo sapiens, UniProt P48039); assay: NanoBRET screen HiBiT-MTNR1A in HEK293; assay type: binding
# T1 construct: purchased Promega (in-house HiBiT-GPCR construct library, NanoBRET)
# Experimental: (§1) Each tracer candidate was screened across the entire library of HiBiT-GPCR constructs using NanoBRET as the detection modality. As depicted in Figure 4A, the specificity of interactions was evaluated through decrease in BRET due to competitive displacement of a bound tracer by excess parental compound. Each tracer was analyzed for binding to each HiBiT-GPCR fusion in the absence and in the presence of competing parental compound. Briefly, HEK293 cells were transfected with HiBiT-GPCR constructs diluted into promoterless DNA to reduce expression and maximize translocation to the cell surface. Each tracer candidate was then screened at concentrations of 1 μM and 0.1 μM across cells expressing these fusions. Cells were treated for 1.5 h with tracer either alone or in the presence of 20 μM competing parental compound (i.e., control). BRET was measured upon addition of purified LgBiT and subsequent complementation with HiBiT genetically fused to a GPCR. The specificity of interactions was assessed through a decrease in BRET signal due to competitive displacement of the bound tracer. To further gauge the robustness of these interactions, the fold response over the control (i.e., BRETtracer/BRETcontrol) was calculated. We chose a 1.5-fold response, which translates to ≥7-fold signal over noise as the minimal threshold required to score an interaction as positive.
# (§2) HiBiT-GPCR DNA constructs were diluted in 10 mM Tris pH 8 to a final concentration of 0.01 μg/μL, arrayed in 96-well plates and stored at −20 °C. For transfection, HEK293 cells were suspended in Opti-MEM (without phenol red) supplemented with 2% fetal bovine serum (Seradigm) and 100 units/mL penicillin–streptomycin (Gibco) at a final concentration of 220,000 cells/mL and dispensed into white 96-well plates at 90 μL/well. Subsequent transfections and screens were carried using an Agilent Bravo Automated Liquid Handling Platform. First, the 96-well HiBiT DNA arrays were diluted 25-fold in Opti-MEM (without serum or phenol red) to a final concentration of 0.0004 μg/μL and 20 μL of the diluted DNAs were transferred into new 96-well plates. Next, promoterless carrier DNA (1 μg/μL) was diluted 25-fold (0.04 μg/μL) and then dispensed into the diluted arrays at 20 μL/well. Following brief mixing, Viafect transfection reagent (Promega) diluted 16-fold into Opti-MEM was dispensed into the plates at 40 μL/well. After mixing by pipetting, plates were incubated for 10 min on the pipetting station deck. The DNA-transfection reagent complexes were then added to plates containing cells. To facilitate the screen, 10 μL of DNA-transfection reagent complexes were added in duplicates to the top 4 and bottom 4 rows, resulting in two identical 48-well arrays per plate. Plates with transfected cells were incubated for 18–20 h at 37 °C/5% CO2. A screen of each tracer across the entire library using two different concentrations requires duplicate plates of transfected cells. Depending on the number of tracers being screened, transfections can be scaled up using the same ratios. The next day, for each tracer, four 20× screening solutions in tracer dilution buffer (Promega) were prepared: two duplicates at final concentration of 20 μM and two duplicates at a final concentration of 2 μM. […] The four resulting solutions were diluted 4-fold in Opti-MEM without serum or phenol red to generate 5× solutions (5 µM and 0.5 µM tracer +/− 100 μM competing compound). To screen the library, a BioTek MultiFlo FX liquid dispenser was used to dispense 22.5 µL of tracer solution to the top 4 rows and 22.5 µL tracer + competing compound solution to the 4 bottom rows. Plates were briefly mixed on an orbital shaker and incubated for 1.5 h at room temperature. […] Plates were briefly mixed on an orbital shaker and incubated for 15 min to allow complementation.
# EDNRB = target: T2, EDNRB (Homo sapiens, UniProt P24530); assay: NanoBRET screen HiBiT-EDNRB in HEK293; assay type: binding
# T2 construct: purchased Promega (in-house HiBiT-GPCR construct library, NanoBRET)
# T2 sequence (P24530 27-442): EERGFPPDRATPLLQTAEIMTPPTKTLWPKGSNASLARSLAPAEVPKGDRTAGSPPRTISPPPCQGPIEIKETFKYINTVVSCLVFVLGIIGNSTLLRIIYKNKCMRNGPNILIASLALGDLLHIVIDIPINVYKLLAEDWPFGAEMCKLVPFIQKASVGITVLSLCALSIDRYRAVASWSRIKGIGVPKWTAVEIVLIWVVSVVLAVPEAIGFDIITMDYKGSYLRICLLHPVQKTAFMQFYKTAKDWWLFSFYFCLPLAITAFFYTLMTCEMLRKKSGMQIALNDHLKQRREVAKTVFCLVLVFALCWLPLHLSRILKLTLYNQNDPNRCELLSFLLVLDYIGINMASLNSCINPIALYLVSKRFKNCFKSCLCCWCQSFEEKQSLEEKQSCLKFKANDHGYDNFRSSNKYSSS
# Experimental: as §1, §2
# T1 sequence (P48039 whole entry): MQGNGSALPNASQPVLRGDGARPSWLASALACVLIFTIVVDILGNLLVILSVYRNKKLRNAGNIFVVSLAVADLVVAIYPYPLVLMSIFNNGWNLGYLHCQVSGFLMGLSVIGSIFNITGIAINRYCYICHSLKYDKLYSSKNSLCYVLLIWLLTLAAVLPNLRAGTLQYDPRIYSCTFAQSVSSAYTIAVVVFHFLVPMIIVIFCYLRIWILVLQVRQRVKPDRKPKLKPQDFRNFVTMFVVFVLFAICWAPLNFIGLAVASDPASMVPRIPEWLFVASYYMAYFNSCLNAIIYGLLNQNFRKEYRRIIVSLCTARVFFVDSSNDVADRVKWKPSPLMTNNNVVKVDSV
SMILES,"NanoBRET Fold Response (MTNR1A; MTNR1A, tracer 0.1μM)","NanoBRET Fold Response (MTNR1A; MTNR1A, tracer 1μM)","NanoBRET Fold Response (EDNRB; EDNRB, tracer 0.1μM)","NanoBRET Fold Response (EDNRB; EDNRB, tracer 1μM)",other results
CCOC(=O)c1cc(C#N)c(N2CCC(C(=O)NS(=O)(=O)Cc3ccccc3/C=C/C(=O)NCCNC(=O)CCc3ccc4n3[B-](F)(F)[N+]3=C(c5ccc[nH]5)C=CC3=C4)CC2)nc1C [AZD1283-1-NB590],–,–,–,–,"NanoBRET Fold Response (MTNR1A; MTNR1A, 0.1μM): 1.00; NanoBRET Fold Response (MTNR1A; MTNR1A, 1μM): 1.00; NanoBRET Fold Response (EDNRB; EDNRB, 0.1μM): 1.03; NanoBRET Fold Response (EDNRB; EDNRB, 1μM): 0.98"
N#CN=C(NCCCOc1cccc(CN2CCCCC2)c1)NCCNC(=O)CCOCCOCCOCCOCCNC(=O)CCc1ccc2n1[B-](F)(F)[N+]1=C(c3ccc[nH]3)C=CC1=C2 [Aminopotentidine-2-NB590],1.00,1.00,1.03,1.02,–
CN(C)CCC=C1c2ccccc2CCc2ccc(C(=O)NCCNC(=O)CCOCCOCCOCCOCCNC(=O)CCc3ccc4n3[B-](F)(F)[N+]3=C(c5ccc[nH]5)C=CC3=C4)cc21 [Amitriptyline-a-2-NB590],–,–,–,–,NanoBRET Fold Response (EDNRB; tracer at 0.1μM): 1.04; NanoBRET Fold Response (EDNRB; tracer at 1μM): 1.05
CN(C)CCC=C1c2ccccc2CCc2ccc(C(=O)NCCNC(=O)CCOCCOCCOCCOCCNC(=O)CCc3ccc4n3[B-](F)(F)[N+]3=C(c5ccc[nH]5)C=CC3=C4)cc21 [Amitriptyline-b-2-NB590],0.96,0.98,–,–,"NanoBRET Fold Response (EDNRB; tracer at 1μM, listed as amitriptyline-b-2-NB590): 0.83"
CN(CCC=C1c2ccccc2CCc2ccccc21)C(=O)CCOCCOCCOCCOCCNC(=O)CCc1ccc2n1[B-](F)(F)[N+]1=C(c3ccc[nH]3)C=CC1=C2 [Amitriptyline-e-2-NB590],–,–,–,–,NanoBRET Fold Response (EDNRB; tracer at 1μM): 1.01
COc1ccc2c(n1)c(CCNC(C)=O)cn2CCNC(=O)CCc1ccc2n1[B-](F)(F)[N+]1=C(c3ccc[nH]3)C=CC1=C2 [Azamelatonin-1-NB590],–,–,–,–,NanoBRET Fold Response (MTNR1A; 0.1μM tracer): 1.12; NanoBRET Fold Response (MTNR1A; 1μM tracer): 1.55; NanoBRET Fold Response (EDNRB; 0.1μM tracer): 0.96; NanoBRET Fold Response (EDNRB; 1μM tracer): 0.96
COc1ccc2[nH]c(-c3ccc(CNC(=O)CCOCCOCCOCCOCCNC(=O)CCc4ccc5n4[B-](F)(F)[N+]4=C(c6ccc[nH]6)C=CC4=C5)cc3)c(CCNC(C)=O)c2n1 [AzomelatoninICO9-2-NB590],–,–,–,–,NanoBRET Fold Response (MTNR1A; 0.1μM tracer): 1.06; NanoBRET Fold Response (MTNR1A; 1μM tracer): 1.42; NanoBRET Fold Response (EDNRB; 0.1μM tracer): 0.95; NanoBRET Fold Response (EDNRB; 1μM tracer): 1.11
O=C(CCOCCOCCOCCOCCNC(=O)CCc1ccc2n1[B-](F)(F)[N+]1=C(c3ccc[nH]3)C=CC1=C2)NCCCN1CCN(C2=Nc3cc(Cl)ccc3Nc3ccccc32)CC1 [Clozapine-a-2-NB590],–,–,–,–,"NanoBRET Fold Response (MTNR1A; MTNR1A, 0.1μM tracer): 1.03; NanoBRET Fold Response (MTNR1A; MTNR1A, 1μM tracer): 1.00; NanoBRET Fold Response (EDNRB; EDNRB, 0.1μM tracer): 1.01; NanoBRET Fold Response (EDNRB; EDNRB, 1μM tracer): 0.93"
CN1CCN(C2=Nc3cc(Cl)ccc3Nc3ccc(CNC(=O)CCOCCOCCOCCOCCNC(=O)CCc4ccc5n4[B-](F)(F)[N+]4=C(c6ccc[nH]6)C=CC4=C5)cc32)CC1 [Clozapine-b-2-NB590],–,–,–,–,"NanoBRET Fold Response (MTNR1A; MTNR1A, 1μM tracer): 1.02; NanoBRET Fold Response (EDNRB; EDNRB, 0.1μM tracer): 0.96; NanoBRET Fold Response (EDNRB; EDNRB, 1μM tracer): 0.99"
CN1CCN(C2=Nc3cc(Cl)ccc3N(CC(=O)NCCOCCOCCOCCOCCNC(=O)CCc3ccc4n3[B-](F)(F)[N+]3=C(c5ccc[nH]5)C=CC3=C4)c3ccccc32)CC1 [Clozapine-c-2-NB590],–,–,–,–,"NanoBRET Fold Response (MTNR1A; MTNR1A, 0.1μM tracer): 0.97; NanoBRET Fold Response (MTNR1A; MTNR1A, 1μM tracer): 1.07; NanoBRET Fold Response (EDNRB; EDNRB, 0.1μM tracer): 1.00; NanoBRET Fold Response (EDNRB; EDNRB, 1μM tracer): 1.06"
O=C(CCOCCOCCOCCOCCNC(=O)CCc1ccc2n1[B-](F)(F)[N+]1=C(c3ccc[nH]3)C=CC1=C2)NCCCN1CCN(C2=Nc3ccccc3Oc3ccc(Cl)cc32)CC1 [Loxapine-a-2-NB590],0.92,1.12,1.05,0.89,–
COc1ccccc1N1CCN(CCCCN2C(=O)c3ccc(CNC(=O)CCOCCOCCOCCOCCNC(=O)CCc4ccc5n4[B-](F)(F)[N+]4=C(c6ccc[nH]6)C=CC4=C5)cc3C2=O)CC1 [NAN-190-2-NB590],0.99,0.97,1.05,0.99,–
COc1ccccc1N1CCN(CCCCN2C(=O)c3ccc(CNC(=O)CCOCCNC(=O)c4ccc(CNC(=O)CCc5ccc6n5[B-](F)(F)[N+]5=C(c7ccc[nH]7)C=CC5=C6)cc4)cc3C2=O)CC1 [NAN-190-3-NB590],1.01,0.80,0.95,1.00,–
O=C(CCc1ccc2n1[B-](F)(F)[N+]1=C(c3ccc[nH]3)C=CC1=C2)NCc1ccc(C(=O)NCCOCCC(=O)N[C@@H]2CC[C@@]3(O)[C@H]4Cc5ccc(O)c6c5[C@@]3(CCN4CC3CC3)[C@H]2O6)cc1 [Naltrexone-3-NB590],0.76,1.18,0.94,1.06,–
Cc1cc2c(s1)Nc1ccccc1N=C2N1CCN(CCCNC(=O)CCOCCOCCOCCOCCNC(=O)CCc2ccc3n2[B-](F)(F)[N+]2=C(c4ccc[nH]4)C=CC2=C3)CC1 [Olanzapine-a-2-NB590],1.01,1.07,1.00,0.89,–
O=C(CCc1ccc2n1[B-](F)(F)[N+]1=C(c3ccc[nH]3)C=CC1=C2)NCc1ccc(C(=O)NCCOCCOCCNCC(O)COc2cccc3ccccc23)cc1 (stereo not shown) [Propranolol-3-NB590],–,–,–,–,"NanoBRET Fold Response (MTNR1A; MTNR1A, 0.1μM): 0.98; NanoBRET Fold Response (MTNR1A; MTNR1A, 1μM): 0.94; NanoBRET Fold Response (EDNRB; EDNRB, 0.1μM): 1.05; NanoBRET Fold Response (EDNRB; EDNRB, 1μM): 1.01"
O=C(CCc1ccc2n1[B-](F)(F)[N+]1=C(c3ccc[nH]3)C=CC1=C2)NCCOCCOCCNC(=O)OCCOCCN1CCN(C2=Nc3ccccc3Sc3ccccc32)CC1 [Quetiapine-a-2-NB590],1.00,1.05,0.97,0.99,–
Cc1nc2n(c(=O)c1CCN1CCC(c3noc4cc(F)ccc34)CC1)CCCC2OC(=O)NCCOCCOCCOCCOCCNC(=O)CCc1ccc2n1[B-](F)(F)[N+]1=C(c3ccc[nH]3)C=CC1=C2 (stereo not shown) [Risperidone-2-NB590],0.97,0.93,1.02,0.97,–
CC(C)N(CC[C@H](c1ccccc1)c1cc(CCNC(=O)CCOCCOCCOCCOCCNC(=O)CCc2ccc3n2[B-](F)(F)[N+]2=C(c4ccc[nH]4)C=CC2=C3)ccc1O)C(C)C [Tolterodine-2-NB590],1.07,0.79,0.97,1.03,–
CC(C)N(CC[C@H](c1ccccc1)c1cc(CCNC(=O)c2ccc(CNC(=O)CCc3ccc4n3[B-](F)(F)[N+]3=C(c5ccc[nH]5)C=CC3=C4)cc2)ccc1O)C(C)C [Tolterodine-BZ-NB590],0.97,1.03,0.96,0.98,–
